From ChEMBL document CHEMBL3817771, “Structure-Based Design of Peptidic Inhibitors of the Interaction between CC Chemokine Ligand 5 (CCL5) and Human Neutrophil Peptides 1 (HNP1)” (J Med Chem, 2016)
Active and inactive are the calls of the source. No cut-off for these calls is given here. Peptide text beside a SMILES is read from it.

Key:
[1] = target: T1, C-C motif chemokine 5/Neutrophil defensin 1 (Defensin, alpha 1) (Homo sapiens) (UniProt P13501+P59665); experiment: Inhibition of CCL5 (unknown origin)-HNP1 (unknown origin) interaction in HUVEC assessed as reduction in CCL5-HNP1-driven human monocyte adhesion at 100 ug/ml pre-incubated for 5 mins before human monocyte addition; assay type: cell-based
[2] = target: T1, C-C motif chemokine 5/Neutrophil defensin 1 (Defensin, alpha 1) (Homo sapiens); experiment: Inhibition of CCL5 (unknown origin)-HNP1 (unknown origin) interaction in HUVEC assessed as CCL5-HNP1-driven human monocyte adhesion at 100 ug/ml pre-incubated for 5 mins before human monocyte addition; assay type: cell-based; parameters: scale not given: the % may be the effect or the level left

T1 sequence (P13501 whole entry, looked up): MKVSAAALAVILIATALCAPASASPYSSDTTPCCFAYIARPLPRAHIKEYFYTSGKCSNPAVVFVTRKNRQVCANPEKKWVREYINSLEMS
T1 sequence (P59665 whole entry, looked up): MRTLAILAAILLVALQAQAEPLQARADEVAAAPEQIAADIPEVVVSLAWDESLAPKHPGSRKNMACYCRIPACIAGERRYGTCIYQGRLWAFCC

| inhibition [1] | Activity [2] [%] | Compound |
| --- | --- | --- |
| Active | 11.8 | H-RRYGTSKYQ-OH |
| Active |  | H-RRYGTSRYQ-OH |
| Active |  | H-RRYGTSIYQ-OH |
| inactive |  | H-TYQRRSGKY-OH |
| Active |  | CC(C)C[C@@H]1NC(=O)[C@H](CCCNC(=N)N)NC(=O)CNC(=O)[C@H](CCC(N)=O)NC(=O)[C@H](Cc2ccc(O)cc2)NC(=O)[C@H](CCCCN)NC(=O)[C@H](C)NC(=O)[C@H]([C@@H](C)O)NC(=O)CNC(=O)[C@H](Cc2ccc(O)cc2)NC(=O)[C@H](CCCNC(=N)N)NC(=O)[C@H](CCCNC(=N)N)NC(=O)[C@@H](N)CSSC[C@@H](C(N)=O)NC(=O)[C@H](C)NC(=O)[C@H](Cc2ccccc2)NC(=O)[C@H](C)NC(=O)[C@H](Cc2c[nH]c3ccccc23)NC1=O (HELM PEPTIDE1{C.R.R.Y.G.T.A.K.Y.Q.G.R.L.W.A.F.A.C.[am]}$PEPTIDE1,PEPTIDE1,1:R3-18:R3$$$V2.0) |
| Active |  | H-YQGRLWAFSS-OH |
